Data on 4 compounds can be found in US6905861B2, “D-aminoacylases, method for producing the same, and method for producing D-amino acids using the same” (Daicel Chemical Industries, Ltd., priority 1998, dated 2005).

In one assay the test system is D-aminoacylase. The assay is described as follows: Substrate specificity of purified D-aminoacylase (TNBS method). It is filed as biochemical, Hypomyces mycophilus IFO 6785. Conditions: for percentage of the specific activity compared with that for N-acetyl-D-methionine taken as 100%, D-enantiomer: 20 mM substrate, 50 mM Tris-HCl pH 7.5, 30° C., 20 min; for activity of the enzyme for the substrate (in words): summary of Table 5. The procedure: The enzyme activity was assayed by determining the amount of amino acid produced using the TNBS method and the HPLC method. In the TMBS method, 100 mM Na2B4O7 (0.5 ml) was added to a sample solution containing amino acid (0.5 ml), 20 μl of 110 mM TNBS (trinitrobenzenesulfonic acid) was then added, and the resulting mixture was quickly stirred. After 5 min, 100 mM NaH2PO4 containing 1.5 mM Na2SO3 (2 ml) was added to the reaction mixture to terminate the color reaction, and the absorbance at 420 nm was measured. HPLC was performed by subjecting a sample solution containing amino acid to high-performance liquid chromatography using an ODS column (column, Wakosil II 5C18 (4.6 dia.×250 mm) (Wako Pure Chemical); eluent, CH3CN/50 mM KH2PO4. H3PO4 (pH 2.5)=2:8; detection, A280 nm; and flow rate, 1.0 ml/min). The retention times were 3.5 min for D-tryptophan and 9.8 min for N-acetyl-D-tryptophan. Using D-tryptophan as the assay standard, one unit (or U) of the enzyme was defined as the amount of the enzyme required to produce 1 μmol of D-tryptophan at 30° C. for 1 min.
Substrate specificity of the enzyme was expressed as the percentage of the specific activity compared with that for N-acetyl-D-methionine taken as 100%. N-chloroacetyl-D-phenylalanine, N-acetyl-D-valine, N-acetyl-D-phenylalanine, N-acetyl-D-tryptophan, N-acetyl-D-leucine, N-acetyl-L-valine, N-acetyl-L-phenylalanine, N-acetyl-L-tryptophan, and N-acetyl-L-leucine substrates were used for the comparison. The enzyme reaction was performed in 50 mM Tris-HCl (pH 7.5) containing 1 µl of the enzyme solution and 20 mM of each substrate (total volume 1.0 ml) at 30° C. for 20 min, and terminated by adding 0.5 ml of a TCA reaction terminating solution according to Tsai et al. (consisting of 110 mM trichloroacetic acid, 220 mM sodium acetate, and 330 mM acetic acid). The enzyme activity was assayed by the TNBS method as described in Example 4(2).

For assay [1], the system named is Hypomyces mycophilus ATCC 76474. The assay is described as follows: D-amino acid production from N-acetyl-D-amino acid by washed fungal cells. It is filed as cell-based. To be noted: Hypomyces mycophilus ATCC 76474 cells; 0.1% substrate, Tris-HCl pH 7.5, 30° C., 24 hours. Here is the method: (§1) A platinum loopful of Hypomyces aurantius IFO 6847 strain, Hypomyces broomeanus IFO 9164 strain, Hypomyces rosellus IFO 6911 strain, Hypomyces chrysospermus IFO 6817 strain, Hypomyces sepulcralis IFO 9102 strain, Hypomyces subiculosus IFO 6892 strain, Hypomyces mycophilus ATCC 76474 or IFO 6785 strain, or Fusarium solani IFO 9974 or IFO 9975 strain was inoculated into 25 ml of YM medium (containing 0.3% yeast extract, 0.3% malt extract, 0.5% peptone, and 2.0% glucose, pH 6.0) in a 500-ml shouldered flask. The fungi were shake-cultured at 24° C. for 3 days. After culturing, a 5-ml aliquot of the culture medium was centrifuged in a refrigerated centrifuge to collect the fungal cells. The cells were washed with physiological saline solution (5 ml) and collected by centrifugation again. A reaction solution (containing 0.1% N-acetyl-D-amino acid shown in Table 1 below in Tris-HCl buffer, pH 7.5) was then added to the cells thus collected. The mixture was incubated in a 5-ml test tube with shaking at 30° C. for 24 hours.
(§2) D-Amino acid thus produced was determined by high-performance liquid chromatography (column, CROWNPAK CR (Daicel Chemical); column temperature, 26° C.; cooled in ice for only valine; mobile phase, HClO4 aqueous solution, pH 2.0; flow rate, 1 ml/min; and detection, 200 nm).

Assay [2] relates to Hypomyces subiculosus IFO 6892 strain. Described as above. It is filed as cell-based. Conditions: Hypomyces subiculosus IFO 6892 cells; 0.1% substrate, Tris-HCl pH 7.5, 30° C., 24 hours. Here is the method:
as §1, §2

Assay [3] deals with Hypomyces mycophilus IFO 6785 strain. Described as above. It is filed as cell-based. Conditions: Hypomyces mycophilus IFO 6785 cells; 0.1% substrate, Tris-HCl pH 7.5, 30° C., 24 hours. The procedure:
as §1, §2

Assay [4] concerns Hypomyces rosellus IFO 6911 strain. Described as above. Conditions: Hypomyces rosellus IFO 6911 cells; 0.1% substrate, Tris-HCl pH 7.5, 30° C., 24 hours. The format is cell-based. The procedure: as §1, §2
Assay [5] relates to Hypomyces aurantius IFO 6847 strain. Described as above. It is filed as cell-based. To be noted: Hypomyces aurantius IFO 6847 cells; 0.1% substrate, Tris-HCl pH 7.5, 30° C., 24 hours. The procedure:
as §1, §2

Assay [6] relates to Hypomyces sepulcralis IFO 9102 strain. Described as above. The format is cell-based. To be noted: Hypomyces sepulcralis IFO 9102 cells; 0.1% substrate, Tris-HCl pH 7.5, 30° C., 24 hours. Here is the method: as §1, §2
The test system of assay [7] is Fusarium solani IFO 9975 strain. The description is as above. It is filed as cell-based. Conditions: Fusarium solani IFO 9975 cells; 0.1% substrate, Tris-HCl pH 7.5, 30° C., 24 hours. The procedure: as §1, §2
For assay [8], the system named is Hypomyces broomeanus IFO 9164 strain. Described as above. The format is cell-based. Conditions: Hypomyces broomeanus IFO 9164 cells; 0.1% substrate, Tris-HCl pH 7.5, 30° C., 24 hours. The procedure:
as §1, §2

For assay [9], the system named is Hypomyces chrysospermus IFO 6817 strain. Described as above. To be noted: Hypomyces chrysospermus IFO 6817 cells; 0.1% substrate, Tris-HCl pH 7.5, 30° C., 24 hours. The format is cell-based. Here is the method:
as §1, §2

Another assay concerns Fusarium solani IFO 9974. Described as above. Conditions: Fusarium solani IFO 9974 cells; 0.1% substrate, Tris-HCl pH 7.5, 30° C., 24 hours. The format is cell-based. Here is the method:
as §1, §2

The subject of assay [10] is D-aminoacylase (crude enzyme) of Auricularia auriculajudae IFO 5949. The assay is described as follows: Crude enzyme activity for each N-Ac-D-amino acid substrate. It is filed as biochemical. Conditions: Auricularia auriculajudae IFO 5949 crude enzyme; 20 mM substrate, 1 mM CoCl2, 50 mM phosphate buffer pH 7.0. The procedure: (§3) Auricularia auriculajudae IFO 5949, Pythium aphanidermaatum IFO 7030, and Menisporopsis novaezelandiae IFO 9179 were each inoculated into sterilized media (100 ml each) (Czapek Dox Broth for IFO 5949, YM1 medium for IFO 7030, and POTATO DEXTROSE BROTH for IFO 9179) in 500-ml Erlenmeyer flasks. The fungi were cultured on a rotary shaker at 210 rpm at 24° C. for 7 days and collected by centrifugation using a […] centrifuge with a RPR10-2 rotor at 8,000 rpm (12,500×g) for 20 min. […] Disrupted cells thus obtained were centrifuged using a […] centrifuge with a RPR20-2 rotor at 17,500 rpm (38,000×g) for 30 min at 4° C. to obtain the supernatant as the crude enzyme. […] Figures in the table denote the amount (mM) of D-amino acids produced from the corresponding N-acetyl-D-amino acids. The D-aminoacylase activity was detected in all the strains tested, producing D-amino acid from the corresponding N-acetyl-D-amino acid.

Assay [11] relates to D-aminoacylase (crude enzyme) of Menisporopsis novaezelandiae IFO 9179. The description is as above. It is filed as biochemical. To be noted: Menisporopsis novaezelandiae IFO 9179 crude enzyme; 20 mM substrate, 1 mM CoCl2, 50 mM phosphate buffer pH 7.0. The procedure:
as §3

In the case of `CC(=O)N[C@H](CC(C)C)C(=O)O` [N-acetyl-D-leucine], in the assay with D-aminoacylase, the “percentage of the specific activity compared with that for N-acetyl-D-methionine taken as 100%, D-enantiomer” value (shortened to “percentage … as 100%, D-enantiomer”) is recorded as 77.5%. Besides, the “activity of the enzyme for the substrate (in words)” value (“activity of the enzyme” for short) in the assay on D-aminoacylase is “very active”. Besides, the “D-amino acid produced from N-acetyl-D-amino acid” value (shortened to “D-amino acid produced”) in assay [1] is 0.11 mg/mL; in assay [2], 0.10 mg/mL; in assay [3], 0.55 mg/mL; in [4] it was 0.3 mg/mL; in assay [5], 0 mg/mL; in assay [6] it was 1.60 mg/mL. Further, the “D-amino acid produced” value was 0.21 mg/mL in [7], 0 mg/mL in [8], 1.05 mg/mL in [9] and 0.14 mg/mL in the assay with Fusarium solani IFO 9974. Moreover, the “amount of D-amino acids produced from the corresponding N-acetyl-D-amino acids” value (“amount of D-amino acids produced” for short) in assay [10] amounted to 2.68 mM.
On to `CC(=O)N[C@H](Cc1ccccc1)C(=O)O` [N-acetyl-D-phenylalanine], for which, in the assay on D-aminoacylase, the “percentage … as 100%, D-enantiomer” value came out at 298%. For the same compound, the “activity of the enzyme” value with D-aminoacylase is “especially active”. For the same compound, the “D-amino acid produced” value was 0.003 mg/mL in assay [1]; 0.05 mg/mL in assay [2]; 0.65 mg/mL in assay [3]; 0.06 mg/mL in [4]; 0.005 mg/mL in assay [5]; 0.15 mg/mL in assay [6]. Moreover, the “D-amino acid produced” value was found to be 0.002 mg/mL in assay [7], 0.004 mg/mL in [8], 0.003 mg/mL in assay [9] and 0.001 mg/mL in the assay on Fusarium solani IFO 9974. In addition, the “amount of D-amino acids produced” value in assay [10] amounted to 4.34 mM; in [11], 0.44 mM.
On to `CC(=O)N[C@@H](C(=O)O)C(C)C` [N-acetyl-D-valine], for which the “percentage … as 100%, D-enantiomer” value with D-aminoacylase stood at 17.5%. In addition, the “activity of the enzyme” value with D-aminoacylase is given as “somewhat active”. In addition, the “D-amino acid produced” value is 0.11 mg/mL in assay [1]; 0.23 mg/mL in assay [2]; 0.98 mg/mL in assay [3]; 2.73 mg/mL in assay [4]; 0.14 mg/mL in assay [5]; 3.19 mg/mL in [6]. Besides, the “D-amino acid produced” value stood at 0.22 mg/mL in [7], 0.18 mg/mL in assay [8], 3.16 mg/mL in assay [9] and 0 mg/mL with Fusarium solani IFO 9974. For the same compound, the figures for the “amount of D-amino acids produced” value in [10] and in assay [11] were 3.33 mM and 0.16 mM, respectively.
As to `CC(=O)N[C@H](Cc1c[nH]c2ccccc12)C(=O)O` [N-acetyl-D-tryptophan], the “percentage … as 100%, D-enantiomer” value in the assay with D-aminoacylase stood at 109%. For the same compound, in the assay with D-aminoacylase, the “activity of the enzyme” value was “very active”. For the same compound, the “D-amino acid produced” value amounted to 0.27 mg/mL in assay [1]; 0.002 mg/mL in assay [2]; 0.40 mg/mL in assay [3]; 0.08 mg/mL in [4]; 0.008 mg/mL in [5]; 0.01 mg/mL in assay [6]. For the same compound, the “D-amino acid produced” value in assay [7] amounted to 0.001 mg/mL; in [8] it was 0.002 mg/mL; in assay [9], 0.001 mg/mL; with Fusarium solani IFO 9974 it was 0 mg/mL. In addition, the entries for the “amount of D-amino acids produced” value in assay [10] and in assay [11] were 2.44 mM and 1.30 mM, respectively.
